Results taken from US9955691B2, “Macrocyclic picolinamides as fungicides” (DOW AGROSCIENCES LLC, priority 2014, dated 2018).

What was measured:
Leptosphaeria nodorum = assay: Fungicidal activity: Wheat Glume Blotch (LEPTNO); type: in vivo; details: 100 ppm, 1 DP (1 Day Protectant)
Description: Technical grades of materials were dissolved in acetone, which were then mixed with nine volumes of water containing 110 ppm Triton X-100. The fungicide solutions were applied onto wheat seedlings using an automated booth sprayer to run-off. All sprayed plants were allowed to air dry prior to further handling. All fungicides were evaluated using the aforementioned method for their activity vs. all target diseases, unless stated otherwise. Wheat leaf blotch and brown rust activity were also evaluated using track spray applications, in which case the fungicides were formulated as EC formulations, containing 0.1% Trycol 5941 in the spray solutions. Wheat plants (variety Yuma) were grown from seed in a greenhouse in 50% mineral soil/50% soil-less Metro mix until the first leaf was fully emerged, with 7-10 seedlings per pot. These plants were inoculated with an aqueous spore suspension of Septoria tritici either prior to or after fungicide treatments. After inoculation the plants were kept in 100% relative humidity (one day in a dark dew chamber followed by two to three days in a lighted dew chamber at 20° C.) to permit spores to germinate and infect the leaf. The plants were then transferred to a greenhouse set at 20° C. for disease to develop. When disease symptoms were fully expressed on the 1st leaves of untreated plants, infection levels were assessed on a scale of 0 to 100 percent disease severity. Percent disease control was calculated using the ratio of disease severity on treated plants relative to untreated plants. Evaluation of Fungicidal Activity: Wheat Glume Blotch (Leptosphaeria nodorum; Bayer Code […]) Wheat plants (variety Yuma) were grown from seed in a greenhouse in 50% mineral soil/50% soil-less Metro mix until the first leaf was fully emerged, with 7-10 seedlings per pot. These plants were inoculated with an aqueous spore suspension of Leptosphaeria nodorum 24 hr after fungicide treatments. After inoculation the plants were kept in 100% relative humidity (one day in a dark dew chamber followed by two days in a lighted dew chamber at 20° C.) to permit spores to germinate and infect the leaf. The plants were then transferred to a greenhouse set at 20° C. for disease to develop. Fungicide formulation, application and disease assessment followed the procedures as described in the Example A.

Phakopsora pachyrhizi = assay: Fungicidal activity: Asian Soybean Rust (PHAKPA); type: in vivo; details: 25 ppm, 1DP (1 Day Protectant)
Description: Evaluation of Fungicidal Activity: Asian Soybean Rust (Phakopsora pachyrhizi; Bayer Code PHAKPA)
Technical grades of materials were dissolved in acetone, which were then mixed with nine volumes of water containing 0.011% Tween 20. The fungicide solutions were applied onto soybean seedlings using an automated booth sprayer to run-off. All sprayed plants were allowed to air dry prior to further handling.
Soybean plants (variety Williams 82) were grown in soil-less Metro mix, with one plant per pot. Two weeks old seedlings were used for testing. Plants were inoculated either 3 days prior to or 1 day after fungicide treatments. Plants were incubated for 24 h in a dark dew room at 22° C. and 100% relative humidity then transferred to a growth room at 23° C. for disease to develop. Disease severity was assessed on the sprayed leaves.

[1] = system: Magnaporthe grisea; Anamorph: Pyricularia oryzae; type: in vivo; details: 100 ppm, 1 DP (1 Day Protectant), rice
Venturia inaequalis = assay: Fungicidal activity: Apple Scab (VENTIN); type: in vivo; details: 100 ppm, 1 DP (1 Day Protectant)
Cercospora beticola = assay: Fungicidal activity: Leaf Spot of Sugar Beets (CERCBE); type: in vivo; details: 100 ppm, 1 DP (1 Day Protectant), sugar beet
Description: Technical grades of materials were dissolved in acetone, which were then mixed with nine volumes of water containing 110 ppm Triton X-100. The fungicide solutions were applied onto wheat seedlings using an automated booth sprayer to run-off. All sprayed plants were allowed to air dry prior to further handling. All fungicides were evaluated using the aforementioned method for their activity vs. all target diseases, unless stated otherwise. Wheat leaf blotch and brown rust activity were also evaluated using track spray applications, in which case the fungicides were formulated as EC formulations, containing 0.1% Trycol 5941 in the spray solutions. Wheat plants (variety Yuma) were grown from seed in a greenhouse in 50% mineral soil/50% soil-less Metro mix until the first leaf was fully emerged, with 7-10 seedlings per pot. These plants were inoculated with an aqueous spore suspension of Septoria tritici either prior to or after fungicide treatments. After inoculation the plants were kept in 100% relative humidity (one day in a dark dew chamber followed by two to three days in a lighted dew chamber at 20° C.) to permit spores to germinate and infect the leaf. The plants were then transferred to a greenhouse set at 20° C. for disease to develop. When disease symptoms were fully expressed on the 1st leaves of untreated plants, infection levels were assessed on a scale of 0 to 100 percent disease severity. Percent disease control was calculated using the ratio of disease severity on treated plants relative to untreated plants. Evaluation of Fungicidal Activity: Leaf Spot of Sugar Beets (Cercospora beticola; Bayer Code CERCBE) Sugar beet plants (variety HH88) were grown in soil-less Metro mix and trimmed regularly to maintain a uniform plant size prior to test. Plants were inoculated with a spore suspension 24 hr after fungicide treatments. Inoculated plants were kept in a dew chamber at 22° C. for 48 hr then incubated in a greenhouse set at 24° C. under a clear plastic hood with bottom ventilation until disease symptoms were fully expressed. Fungicide formulation, application and disease assessment on the sprayed leaves followed the procedures as described in the Example A.

Uncinula necator = assay: Fungicidal activity: Grape Powdery Mildew (UNCINE); type: in vivo; details: 100 ppm, 1 DP (1 Day Protectant)
Description: Technical grades of materials were dissolved in acetone, which were then mixed with nine volumes of water containing 110 ppm Triton X-100. The fungicide solutions were applied onto wheat seedlings using an automated booth sprayer to run-off. All sprayed plants were allowed to air dry prior to further handling. All fungicides were evaluated using the aforementioned method for their activity vs. all target diseases, unless stated otherwise. Wheat leaf blotch and brown rust activity were also evaluated using track spray applications, in which case the fungicides were formulated as EC formulations, containing 0.1% Trycol 5941 in the spray solutions. Wheat plants (variety Yuma) were grown from seed in a greenhouse in 50% mineral soil/50% soil-less Metro mix until the first leaf was fully emerged, with 7-10 seedlings per pot. These plants were inoculated with an aqueous spore suspension of Septoria tritici either prior to or after fungicide treatments. After inoculation the plants were kept in 100% relative humidity (one day in a dark dew chamber followed by two to three days in a lighted dew chamber at 20° C.) to permit spores to germinate and infect the leaf. The plants were then transferred to a greenhouse set at 20° C. for disease to develop. When disease symptoms were fully expressed on the 1st leaves of untreated plants, infection levels were assessed on a scale of 0 to 100 percent disease severity. Percent disease control was calculated using the ratio of disease severity on treated plants relative to untreated plants. Evaluation of Fungicidal Activity: Grape Powdery Mildew (Uncinula necator; Bayer code […]) Grape seedlings (variety Carignane) were grown in soil-less Metro mix, with one plant per pot, and used in the test when approximately one month old. Plants were inoculated 24 hr after fungicide treatment by shaking spores from infected leaves over test plants. Plants were maintained in a greenhouse set at 20° C. until disease was fully developed. […]

Erysiphe cichoracearum = assay: Fungicidal activity: Powdery Mildew of Cucumber (ERYSCI); type: in vivo; details: 100 ppm, 1 DP (1 Day Protectant)
[2] = system: Blumeria graminis f. sp. tritici; assay: Fungicidal activity: Wheat Powdery Mildew (ERYSGT); type: in vivo; details: 100 ppm, 1 DP (1 Day Protectant)

COc1ccnc(C(=O)N[C@H]2COC[C@H](Cc3ccccc3)[C@@H](Cc3ccccc3)[C@H](C)OC2=O)c1OCOC(C)=O [Cmpd. 3, ((2-(((3S,7R,8R,9S)-7,8-dibenzyl-9-methyl-2-oxo-1,5-dioxonan-3-yl)carbamoyl)-4-methoxypyridin-3-yl)oxy)methyl acetate]
LEPTNO disease control rating (Leptosphaeria nodorum): A (>70) | PHAKPA disease control rating (Phakopsora pachyrhizi): A (>70) | melting point: 56 to 60 °C | PYRIOR disease control rating [1]: A (>70)

CCCC[C@@H]1[C@@H](Cc2ccccc2)COC[C@H](NC(=O)c2nccc(OC)c2OCOC(=O)C(C)C)C(=O)O[C@H]1C [compound 1]
VENTIN disease control rating (Venturia inaequalis): B (≤70) | CERCBE disease control rating (Cercospora beticola): A (>70) | LEPTNO disease control rating (Leptosphaeria nodorum): A (>70) | UNCINE disease control rating (Uncinula necator): A (>70) | ERYSCI disease control rating (Erysiphe cichoracearum): A (>70) | PYRIOR disease control rating [1]: A (>70)

COc1ccnc(C(=O)N[C@H]2COC[C@H](c3ccccc3)[C@@H](c3ccccc3)[C@H](C)OC2=O)c1OCOC(C)=O [compound 7]
ERYSGT disease control rating [2]: A (>70) | CERCBE disease control rating (Cercospora beticola): A (>70) | UNCINE disease control rating (Uncinula necator): A (>70) | ERYSCI disease control rating (Erysiphe cichoracearum): A (>70) | melting point: 59 to 64 °C | PYRIOR disease control rating [1]: A (>70)

CCCC[C@@H]1[C@@H](Cc2ccc(C(F)(F)F)cc2)COC[C@H](NC(=O)c2nccc(OC)c2OCOC(C)=O)C(=O)O[C@H]1C [compound 16]
VENTIN disease control rating (Venturia inaequalis): A (>70) | CERCBE disease control rating (Cercospora beticola): A (>70) | LEPTNO disease control rating (Leptosphaeria nodorum): A (>70) | UNCINE disease control rating (Uncinula necator): A (>70) | ERYSCI disease control rating (Erysiphe cichoracearum): A (>70)

COc1ccnc(C(=O)N[C@H]2COC[C@H](Cc3ccccc3)[C@@H](Cc3ccccc3)[C@H](C)OC2=O)c1OC(C)=O [compound 27]
CERCBE disease control rating (Cercospora beticola): A (>70) | LEPTNO disease control rating (Leptosphaeria nodorum): A (>70) | ERYSCI disease control rating (Erysiphe cichoracearum): B (≤70) | melting point: 67 to 71 °C | PYRIOR disease control rating [1]: A (>70)

COc1ccnc(C(=O)N[C@H]2COC[C@H](CC3CC3)[C@@H](c3ccccc3)[C@H](C)OC2=O)c1OC(C)=O [compound 100]
CERCBE disease control rating (Cercospora beticola): A (>70) | LEPTNO disease control rating (Leptosphaeria nodorum): A (>70) | ERYSCI disease control rating (Erysiphe cichoracearum): A (>70) | PYRIOR disease control rating [1]: A (>70)
